{
  "source": "ChEMBL document CHEMBL1137232",
  "about": "(J Med Chem, 2004)",
  "key": {"[1]": {"biological_target": "Norepinephrine transporter (Rattus norvegicus, UniProt Q9WTR4)", "sequence (Q9WTR4 whole entry)": "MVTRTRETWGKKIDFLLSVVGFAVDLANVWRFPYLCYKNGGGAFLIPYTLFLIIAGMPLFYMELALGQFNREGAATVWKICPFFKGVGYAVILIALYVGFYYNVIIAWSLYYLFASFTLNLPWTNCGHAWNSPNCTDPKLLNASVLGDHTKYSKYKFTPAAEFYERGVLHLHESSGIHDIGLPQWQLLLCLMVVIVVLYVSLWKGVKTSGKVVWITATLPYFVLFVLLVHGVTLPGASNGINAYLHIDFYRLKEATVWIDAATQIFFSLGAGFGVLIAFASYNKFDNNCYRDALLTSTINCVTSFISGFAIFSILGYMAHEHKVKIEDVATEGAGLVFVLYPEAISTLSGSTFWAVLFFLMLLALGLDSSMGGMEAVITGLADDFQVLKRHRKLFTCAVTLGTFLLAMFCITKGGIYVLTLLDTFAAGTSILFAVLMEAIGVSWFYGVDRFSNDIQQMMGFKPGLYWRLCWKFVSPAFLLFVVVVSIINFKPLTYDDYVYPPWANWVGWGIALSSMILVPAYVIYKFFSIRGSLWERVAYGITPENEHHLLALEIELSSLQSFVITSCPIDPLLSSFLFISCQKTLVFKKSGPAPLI", "assay": "Inhibition of high affinity uptake by the norepinephrine transporter from rat synaptosomal nerve endings by using [3H]NE as radioligand"}, "[2]": {"biological_target": "Sodium-dependent dopamine transporter (Rattus norvegicus, UniProt P23977)", "sequence (P23977 whole entry)": "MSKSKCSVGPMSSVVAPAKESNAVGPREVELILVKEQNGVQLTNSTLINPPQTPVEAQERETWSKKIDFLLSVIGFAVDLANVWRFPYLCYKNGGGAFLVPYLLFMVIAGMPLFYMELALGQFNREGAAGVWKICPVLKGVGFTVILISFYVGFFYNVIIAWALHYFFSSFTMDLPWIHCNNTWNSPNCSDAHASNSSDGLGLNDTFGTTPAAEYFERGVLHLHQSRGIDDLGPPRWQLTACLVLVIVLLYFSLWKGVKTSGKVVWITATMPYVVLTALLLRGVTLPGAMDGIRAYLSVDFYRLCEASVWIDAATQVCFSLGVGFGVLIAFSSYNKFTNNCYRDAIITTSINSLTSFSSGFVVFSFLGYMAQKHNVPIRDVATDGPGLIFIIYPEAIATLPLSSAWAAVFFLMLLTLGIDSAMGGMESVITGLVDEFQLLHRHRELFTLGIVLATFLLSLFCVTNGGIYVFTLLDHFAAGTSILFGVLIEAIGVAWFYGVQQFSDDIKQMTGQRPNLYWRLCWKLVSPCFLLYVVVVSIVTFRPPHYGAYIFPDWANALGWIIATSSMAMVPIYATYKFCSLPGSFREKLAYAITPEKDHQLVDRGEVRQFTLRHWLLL", "assay": "Inhibition of high affinity uptake by the dopamine transporter from rat synaptosomal nerve endings by using [3H]DA as radioligand"}, "[3]": {"biological_target": "Sodium-dependent serotonin transporter (Rattus norvegicus, UniProt P31652)", "sequence (P31652 whole entry)": "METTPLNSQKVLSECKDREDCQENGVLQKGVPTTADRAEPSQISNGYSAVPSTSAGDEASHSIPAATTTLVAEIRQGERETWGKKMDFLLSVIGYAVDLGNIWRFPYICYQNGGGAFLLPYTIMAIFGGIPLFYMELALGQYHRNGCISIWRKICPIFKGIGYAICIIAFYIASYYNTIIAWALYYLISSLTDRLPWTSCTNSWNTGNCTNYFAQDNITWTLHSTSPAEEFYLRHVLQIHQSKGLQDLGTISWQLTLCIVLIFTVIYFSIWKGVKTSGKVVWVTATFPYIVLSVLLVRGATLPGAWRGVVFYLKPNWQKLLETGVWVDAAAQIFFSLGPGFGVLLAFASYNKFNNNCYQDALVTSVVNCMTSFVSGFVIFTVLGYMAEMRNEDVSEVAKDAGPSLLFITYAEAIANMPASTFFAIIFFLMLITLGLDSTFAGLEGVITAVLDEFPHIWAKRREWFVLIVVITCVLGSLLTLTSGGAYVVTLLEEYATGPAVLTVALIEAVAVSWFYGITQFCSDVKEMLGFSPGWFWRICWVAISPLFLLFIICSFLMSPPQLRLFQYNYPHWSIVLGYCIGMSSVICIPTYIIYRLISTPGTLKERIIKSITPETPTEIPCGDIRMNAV", "assay": "Inhibition of high affinity uptake by the serotonin transporter (5-HT) from rat synaptosomal nerve endings by using [3H]5-HT as radioligand"}},
  "data": [
    {"smiles": "COC(=O)CSCC1CNCCC1c1ccc(Cl)cc1", "note": "(stereo not given)", "values": [
      {"measurement": "Ki", "setting": "[1]", "value": 0.56, "unit": "nM"},
      {"measurement": "Ki", "setting": "[2]", "value": 51, "unit": "nM"},
      {"measurement": "Ki", "setting": "[3]", "value": 13, "unit": "nM"}
    ]},
    {"smiles": "CN1CCC(c2ccc(Cl)cc2)C(C[S+]([O-])CC(=O)N(C)C)C1", "note": "(stereo not given)", "values": [
      {"measurement": "Ki", "setting": "[1]", "value": 1250, "unit": "nM"},
      {"measurement": "Ki", "setting": "[2]", "value": 2880, "unit": "nM"},
      {"measurement": "Ki", "setting": "[3]", "value": 924, "unit": "nM"}
    ]},
    {"smiles": "COC(=O)C[S+]([O-])CC1CN(C)CCC1c1ccc(Cl)cc1", "note": "(stereo not given)", "values": [
      {"measurement": "Ki", "setting": "[1]", "value": 53, "unit": "nM"},
      {"measurement": "Ki", "setting": "[2]", "value": 231, "unit": "nM"},
      {"measurement": "Ki", "setting": "[3]", "value": 809, "unit": "nM"}
    ]},
    {"smiles": "COCC[S+]([O-])CC1CN(C)CCC1c1ccc(Cl)cc1", "note": "(stereo not given)", "values": [
      {"measurement": "Ki", "setting": "[1]", "value": 25, "unit": "nM"},
      {"measurement": "Ki", "setting": "[2]", "value": 15, "unit": "nM"},
      {"measurement": "Ki", "setting": "[3]", "value": 469, "unit": "nM"}
    ]},
    {"smiles": "CC(C)NC(=O)CSCC1CN(C)CCC1c1ccc(Cl)cc1", "note": "(stereo not given)", "values": [
      {"measurement": "Ki", "setting": "[1]", "value": 0.8, "unit": "nM"},
      {"measurement": "Ki", "setting": "[2]", "value": 1, "unit": "nM"},
      {"measurement": "Ki", "setting": "[3]", "value": 1.1, "unit": "nM"}
    ]},
    {"smiles": "CN1CCC(c2ccc(Cl)cc2)C(C[S+]([O-])CCOC(=O)c2ccccc2)C1", "note": "(stereo not given)", "values": [
      {"measurement": "Ki", "setting": "[1]", "value": 18, "unit": "nM"},
      {"measurement": "Ki", "setting": "[2]", "value": 32, "unit": "nM"},
      {"measurement": "Ki", "setting": "[3]", "value": 199, "unit": "nM"}
    ]},
    {"smiles": "CN1CCC(c2ccc(Cl)cc2)C(C[S+]([O-])CC(=O)N2CCCCC2)C1", "note": "(stereo not given)", "values": [
      {"measurement": "Ki", "setting": "[1]", "value": 460, "unit": "nM"},
      {"measurement": "Ki", "setting": "[2]", "value": 379, "unit": "nM"},
      {"measurement": "Ki", "setting": "[3]", "value": 825, "unit": "nM"}
    ]},
    {"smiles": "CN1CCC(c2ccc(Cl)cc2)C(C[S+]([O-])CC(=O)NO)C1", "note": "(stereo not given)", "values": [
      {"measurement": "Ki", "setting": "[1]", "value": 12, "unit": "nM"},
      {"measurement": "Ki", "setting": "[2]", "value": 55, "unit": "nM"},
      {"measurement": "Ki", "setting": "[3]", "value": 1800, "unit": "nM"}
    ]},
    {"smiles": "NC(=O)C[S+]([O-])CC1CNCCC1c1ccc(Cl)cc1", "note": "(stereo not given)", "values": [
      {"measurement": "Ki", "setting": "[1]", "value": 31, "unit": "nM"},
      {"measurement": "Ki", "setting": "[2]", "value": 108, "unit": "nM"},
      {"measurement": "Ki", "setting": "[3]", "value": 775, "unit": "nM"}
    ]},
    {"smiles": "CN1CCC(c2ccc(Cl)cc2)C(CSCC(=O)N2CCCCC2)C1", "note": "(stereo not given)", "values": [
      {"measurement": "Ki", "setting": "[1]", "value": 0.68, "unit": "nM"},
      {"measurement": "Ki", "setting": "[2]", "value": 83, "unit": "nM"},
      {"measurement": "Ki", "setting": "[3]", "value": 4.5, "unit": "nM"}
    ]},
    {"smiles": "CNC(=O)C[S+]([O-])CC1CN(C)CCC1c1ccc(Cl)cc1", "note": "(stereo not given)", "values": [
      {"measurement": "Ki", "setting": "[1]", "value": 86, "unit": "nM"},
      {"measurement": "Ki", "setting": "[2]", "value": 164, "unit": "nM"},
      {"measurement": "Ki", "setting": "[3]", "value": 2030, "unit": "nM"}
    ]},
    {"smiles": "COCCSCC1CN(C)CCC1c1ccc(Cl)cc1", "note": "(stereo not given)", "values": [
      {"measurement": "Ki", "setting": "[1]", "value": 6, "unit": "nM"},
      {"measurement": "Ki", "setting": "[2]", "value": 50, "unit": "nM"},
      {"measurement": "Ki", "setting": "[3]", "value": 191, "unit": "nM"}
    ]},
    {"smiles": "CC(C)NC(=O)C[S+]([O-])CC1CN(C)CCC1c1ccc(Cl)cc1", "note": "(stereo not given)", "values": [
      {"measurement": "Ki", "setting": "[1]", "value": 20, "unit": "nM"},
      {"measurement": "Ki", "setting": "[2]", "value": 248, "unit": "nM"},
      {"measurement": "Ki", "setting": "[3]", "value": 473, "unit": "nM"}
    ]},
    {"smiles": "CNC(=O)CSCC1CN(C)CCC1c1ccc(Cl)cc1", "note": "(stereo not given)", "values": [
      {"measurement": "Ki", "setting": "[1]", "value": 25, "unit": "nM"},
      {"measurement": "Ki", "setting": "[2]", "value": 13, "unit": "nM"},
      {"measurement": "Ki", "setting": "[3]", "value": 110, "unit": "nM"}
    ]},
    {"smiles": "CN1CCC(c2ccc(Cl)cc2)C(CSCC(=O)NO)C1", "note": "(stereo not given)", "values": [
      {"measurement": "Ki", "setting": "[1]", "value": 15, "unit": "nM"},
      {"measurement": "Ki", "setting": "[2]", "value": 85, "unit": "nM"},
      {"measurement": "Ki", "setting": "[3]", "value": 227, "unit": "nM"}
    ]},
    {"smiles": "CC(=O)OCC[S+]([O-])CC1CN(C)CCC1c1ccc(Cl)cc1", "note": "(stereo not given)", "values": [
      {"measurement": "Ki", "setting": "[1]", "value": 29, "unit": "nM"},
      {"measurement": "Ki", "setting": "[2]", "value": 9, "unit": "nM"},
      {"measurement": "Ki", "setting": "[3]", "value": 87, "unit": "nM"}
    ]},
    {"smiles": "CN1CCC(c2ccc(Cl)cc2)C(CSCC(=O)N(C)C)C1", "note": "(stereo not given)", "values": [
      {"measurement": "Ki", "setting": "[1]", "value": 27, "unit": "nM"},
      {"measurement": "Ki", "setting": "[2]", "value": 116, "unit": "nM"},
      {"measurement": "Ki", "setting": "[3]", "value": 88, "unit": "nM"}
    ]},
    {"smiles": "CN1CCC(c2ccc(Cl)cc2)C(CSCC(N)=O)C1", "note": "(stereo not given)", "values": [
      {"measurement": "Ki", "setting": "[1]", "value": 39, "unit": "nM"},
      {"measurement": "Ki", "setting": "[2]", "value": 159, "unit": "nM"},
      {"measurement": "Ki", "setting": "[3]", "value": 557, "unit": "nM"}
    ]},
    {"smiles": "NC(=O)CSCC1CNCCC1c1ccc(Cl)cc1", "note": "(stereo not given)", "values": [
      {"measurement": "Ki", "setting": "[1]", "value": 10, "unit": "nM"},
      {"measurement": "Ki", "setting": "[2]", "value": 114, "unit": "nM"},
      {"measurement": "Ki", "setting": "[3]", "value": 170, "unit": "nM"}
    ]},
    {"smiles": "CN1CCC(c2ccc(Cl)cc2)C(CI)C1", "note": "(stereo not given)", "values": [
      {"measurement": "Ki", "setting": "[1]", "value": 424, "unit": "nM"},
      {"measurement": "Ki", "setting": "[2]", "value": 376, "unit": "nM"},
      {"measurement": "Ki", "setting": "[3]", "value": 238, "unit": "nM"}
    ]},
    {"smiles": "CC(=O)OCCSCC1CN(C)CCC1c1ccc(Cl)cc1", "note": "(stereo not given)", "values": [
      {"measurement": "Ki", "setting": "[1]", "value": 3.6, "unit": "nM"},
      {"measurement": "Ki", "setting": "[2]", "value": 35, "unit": "nM"},
      {"measurement": "Ki", "setting": "[3]", "value": 57, "unit": "nM"}
    ]},
    {"smiles": "CN1CCC(c2ccc(Cl)cc2)C(C[S+]([O-])CCO)C1", "note": "(stereo not given)", "values": [
      {"measurement": "Ki", "setting": "[1]", "value": 42, "unit": "nM"},
      {"measurement": "Ki", "setting": "[2]", "value": 12, "unit": "nM"},
      {"measurement": "Ki", "setting": "[3]", "value": 2180, "unit": "nM"}
    ]},
    {"smiles": "CN1CCC(c2ccc(Cl)cc2)C(C[S+]([O-])CC(N)=O)C1", "note": "(stereo not given)", "values": [
      {"measurement": "Ki", "setting": "[2]", "value": 209, "unit": "nM"},
      {"measurement": "Ki", "setting": "[3]", "value": 5790, "unit": "nM"}
    ]},
    {"smiles": "Cc1noc(CSCC2CN(C)CCC2c2ccc(Cl)cc2)n1", "note": "(stereo not given)", "values": [
      {"measurement": "Ki", "setting": "[1]", "value": 32, "unit": "nM"},
      {"measurement": "Ki", "setting": "[2]", "value": 126, "unit": "nM"},
      {"measurement": "Ki", "setting": "[3]", "value": 221, "unit": "nM"}
    ]},
    {"smiles": "Cc1noc(C[S+]([O-])CC2CN(C)CCC2c2ccc(Cl)cc2)n1", "note": "(stereo not given)", "values": [
      {"measurement": "Ki", "setting": "[1]", "value": 218, "unit": "nM"},
      {"measurement": "Ki", "setting": "[2]", "value": 1650, "unit": "nM"},
      {"measurement": "Ki", "setting": "[3]", "value": 1080, "unit": "nM"}
    ]},
    {"smiles": "COC(=O)CSCC1CN(C)CCC1c1ccc(Cl)cc1", "note": "(stereo not given)", "values": [
      {"measurement": "Ki", "setting": "[1]", "value": 25, "unit": "nM"},
      {"measurement": "Ki", "setting": "[2]", "value": 80, "unit": "nM"},
      {"measurement": "Ki", "setting": "[3]", "value": 208, "unit": "nM"}
    ]},
    {"smiles": "CN1CCC(c2ccc(Cl)cc2)C(CSCCO)C1", "note": "(stereo not given)", "values": [
      {"measurement": "Ki", "setting": "[1]", "value": 0.94, "unit": "nM"},
      {"measurement": "Ki", "setting": "[2]", "value": 16, "unit": "nM"},
      {"measurement": "Ki", "setting": "[3]", "value": 158, "unit": "nM"}
    ]},
    {"smiles": "CN1CCC(c2ccc(Cl)cc2)C(CSCCOC(=O)c2ccccc2)C1", "note": "(stereo not given)", "values": [
      {"measurement": "Ki", "setting": "[1]", "value": 4.5, "unit": "nM"},
      {"measurement": "Ki", "setting": "[2]", "value": 68, "unit": "nM"},
      {"measurement": "Ki", "setting": "[3]", "value": 6.7, "unit": "nM"}
    ]},
    {"smiles": "COC(=O)C1CN(C)CCC1c1ccc(Cl)cc1", "note": "(stereo not given)", "values": [
      {"measurement": "Ki", "setting": "[1]", "value": 252, "unit": "nM"},
      {"measurement": "Ki", "setting": "[3]", "value": 8490, "unit": "nM"}
    ]}
  ]
}
